Test results taken from US8460669B2, “Compositions and methods for identifying response targets and treating flavivirus infection responses” (Academia Sinica, priority 2005, dated 2013).

How the values were obtained:
Details in all cases: sugar 1 mg/ml
Dectin-1 = target: T1, Dectin-1 (Homo sapiens, UniProt Q9BXN2); assay: Sugar competition EIA, Fc.Dectin-1 binding to GLPS-F3
T1 construct: The extracellular domains of lectin receptors, TREMs and TLTs were cloned by the reverse-transcriptase polymerase chain reaction (RT-PCR); made in house; host or cells: 293-F (FreeStyle 293) cells
T1 sequence (Q9BXN2 66-247 limits assumed): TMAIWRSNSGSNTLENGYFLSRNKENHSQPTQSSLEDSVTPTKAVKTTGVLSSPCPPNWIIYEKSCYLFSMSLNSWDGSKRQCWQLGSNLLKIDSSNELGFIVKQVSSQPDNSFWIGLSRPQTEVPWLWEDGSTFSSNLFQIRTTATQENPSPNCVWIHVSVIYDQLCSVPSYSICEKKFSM
Description: (§1) The interaction between GLPS-F3 and receptor.Fc was then tested. Unbiotinylated GLPS-F3 was immobilized at 100 ng/well as described above, and 100 μL receptor.Fc fusion protein (1 μg/ml in 2 mM MgCl2/2 mM CaCl2/1% BSA/TBST) was added into each well and incubated for 1 hour at room temperature. After washing with TBST, wells were incubated with peroxidase-conjugated goat anti-human IgG Ab (1:5000 dilution, Jackson ImmunoResearch Laboratories) in blocking buffer at room temperature for 30 min. Wells were incubated with 100 μL TMB substrate for 15 min after TBST washing and read at 450 nm in a Fusion plate reader (Perkin Elmer). The results were normalized with respect to Fc.Dectin-1 binding (Dectin-1 is a known lectin receptor that binds to β-1,3-glucan which is the backbone found in GLPS-F3). FIG. 6B depicts in graphical form the affinity of each receptor for GLPS-F3 relative to Dectin-1. […] There was also weaker but positive GLPS-F3 binding ability (25-50% binding intensity compared to Fc.dectin-1) found in Fc.NKG2D, Fc.MINCLE, Fc.mKCR, DCAL1.Fc, DEC205.Fc, Endo180.Fc and NKp30(NCR3).Fc.
(§2) To understand the interaction of GLPS-F3 with specific innate immunity receptors, the polysaccharides mannan and β-glucan and the monosaccharides D-mannose (Man), D-glucose (Glc), N-acetyl-glucosamine (GlcNAc), D-galactose (Gal), N-acetyl-galactosamine (GalNAc), L-fucose (Fuc) and sialic acid, were used in a competition assay. […] The assays were carried out as in Example 9, with the addition of 1 mg/ml of each polysaccharide or monosaccharide.

Langerin = target: T2, Langerin (Homo sapiens, UniProt Q9UJ71); assay: Sugar competition EIA, Fc.Langerin binding to GLPS-F3
T2 construct: The extracellular domains of lectin receptors, TREMs and TLTs were cloned by the reverse-transcriptase polymerase chain reaction (RT-PCR); made in house; host or cells: 293-F (FreeStyle 293) cells

DC-SIGN = target: T3, DC-SIGN (Homo sapiens, UniProt Q9NNX6); assay: Sugar competition EIA, Fc.DC-SIGN binding to GLPS-F3
T3 construct: The extracellular domains of lectin receptors, TREMs and TLTs were cloned by the reverse-transcriptase polymerase chain reaction (RT-PCR); made in house; host or cells: 293-F (FreeStyle 293) cells
T3 sequence (Q9NNX6 59-404 limits assumed): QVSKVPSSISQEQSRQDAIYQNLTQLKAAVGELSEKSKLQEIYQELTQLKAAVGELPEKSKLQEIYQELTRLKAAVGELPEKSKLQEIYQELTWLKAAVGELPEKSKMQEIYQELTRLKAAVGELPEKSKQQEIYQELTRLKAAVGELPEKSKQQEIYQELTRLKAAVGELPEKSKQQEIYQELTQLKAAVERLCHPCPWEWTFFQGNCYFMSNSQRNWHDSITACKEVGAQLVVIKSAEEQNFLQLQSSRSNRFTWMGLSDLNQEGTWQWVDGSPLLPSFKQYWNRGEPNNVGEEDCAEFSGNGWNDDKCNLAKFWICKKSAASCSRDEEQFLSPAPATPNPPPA

TLR4.Fc = target: T4, TLR4.Fc (Homo sapiens, UniProt O00206); assay: Sugar competition EIA, TLR4.Fc binding to GLPS-F3
T4 construct: The extracellular domains of several innate immunity receptors from immune cells were cloned by reverse-transcription polymerase chain reaction (RT-PCR); made in house; host or cells: 293-F (FreeStyle 293) cells

CLEC-2 = target: T5, CLEC-2 (Homo sapiens, UniProt Q9P126); assay: Sugar competition EIA, Fc.CLEC-2 binding to GLPS-F3
T5 construct: The extracellular domains of lectin receptors, TREMs and TLTs were cloned by the reverse-transcriptase polymerase chain reaction (RT-PCR); made in house; host or cells: 293-F (FreeStyle 293) cells
Description: as §1, §2

CLEC-6 = target: T6, CLEC-6 (Homo sapiens, UniProt Q8WXI8); assay: Sugar competition EIA, Fc.CLEC-6 binding to GLPS-F3
T6 construct: The extracellular domains of lectin receptors, TREMs and TLTs were cloned by the reverse-transcriptase polymerase chain reaction (RT-PCR); made in house; host or cells: 293-F (FreeStyle 293) cells
T6 sequence (Q8WXI8 39-215 limits assumed): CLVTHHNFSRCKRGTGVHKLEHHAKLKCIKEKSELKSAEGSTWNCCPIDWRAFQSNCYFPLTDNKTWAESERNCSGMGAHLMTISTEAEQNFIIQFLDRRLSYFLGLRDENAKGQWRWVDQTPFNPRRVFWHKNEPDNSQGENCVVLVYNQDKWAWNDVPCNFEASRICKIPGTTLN
Description: as §1, §2

T4 sequence (O00206 24-631 limits assumed): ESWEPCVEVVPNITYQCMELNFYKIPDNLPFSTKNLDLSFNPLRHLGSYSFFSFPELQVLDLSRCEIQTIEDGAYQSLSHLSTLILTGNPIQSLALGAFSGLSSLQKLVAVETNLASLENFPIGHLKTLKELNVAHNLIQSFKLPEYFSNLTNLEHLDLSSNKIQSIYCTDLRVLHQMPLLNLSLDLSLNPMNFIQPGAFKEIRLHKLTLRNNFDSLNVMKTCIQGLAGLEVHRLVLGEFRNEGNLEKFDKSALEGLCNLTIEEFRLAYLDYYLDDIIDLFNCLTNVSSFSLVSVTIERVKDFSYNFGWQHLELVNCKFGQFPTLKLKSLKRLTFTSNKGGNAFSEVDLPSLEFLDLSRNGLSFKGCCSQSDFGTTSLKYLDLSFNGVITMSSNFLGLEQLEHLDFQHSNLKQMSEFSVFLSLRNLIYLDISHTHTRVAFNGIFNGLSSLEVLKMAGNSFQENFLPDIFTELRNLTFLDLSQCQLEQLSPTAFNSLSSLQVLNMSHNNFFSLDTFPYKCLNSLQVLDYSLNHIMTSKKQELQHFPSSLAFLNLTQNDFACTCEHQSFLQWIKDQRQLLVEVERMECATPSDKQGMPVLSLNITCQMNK
T2 sequence (Q9UJ71 65-328 limits assumed): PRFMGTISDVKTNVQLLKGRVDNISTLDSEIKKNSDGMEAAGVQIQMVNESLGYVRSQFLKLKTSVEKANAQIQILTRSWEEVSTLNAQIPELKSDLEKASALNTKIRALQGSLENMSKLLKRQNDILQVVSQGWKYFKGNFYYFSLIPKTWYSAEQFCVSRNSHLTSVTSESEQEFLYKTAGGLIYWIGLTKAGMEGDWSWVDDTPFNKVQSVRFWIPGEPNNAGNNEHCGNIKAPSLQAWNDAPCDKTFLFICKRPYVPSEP
T5 sequence (Q9P126 55-229 limits assumed): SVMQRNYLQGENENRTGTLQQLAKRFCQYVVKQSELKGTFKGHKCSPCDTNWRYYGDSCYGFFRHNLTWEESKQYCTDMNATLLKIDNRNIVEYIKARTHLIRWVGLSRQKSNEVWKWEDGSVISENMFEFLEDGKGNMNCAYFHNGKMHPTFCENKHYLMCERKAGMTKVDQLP

C[C@H](O)[C@@H](O)[C@@H](O)[C@H](O)C=O [Fuc, L-fucose]
Percentage of binding of Dectin-1 Fc fusion to GLPS-F3 relative to binding in absence of sugar competitor (Dectin-1): 92 ± 5.2% | Percentage of binding of Langerin Fc fusion to GLPS-F3 relative to binding in absence of sugar competitor (Langerin): 76 ± 1.9% | Percentage of binding of DC-SIGN Fc fusion to GLPS-F3 relative to binding in absence of sugar competitor (DC-SIGN): 8 ± 1.8% | inhibition of binding of Fc.DC-SIGN to GLPS-F3 (DC-SIGN): 92% | Percentage of binding of TLR4.Fc to GLPS-F3 relative to binding in absence of sugar competitor (TLR4.Fc): 56 ± 1.9% | inhibition of TLR4.Fc and GLPS-F3 interaction (TLR4.Fc): 44% | Percentage of binding of CLEC-2 Fc fusion to GLPS-F3 relative to binding in absence of sugar competitor (CLEC-2): 91 ± 8.5% | Percentage of binding of CLEC-6 Fc fusion to GLPS-F3 relative to binding in absence of sugar competitor (CLEC-6): 82 ± 6.5%

mannan
Percentage of binding of Dectin-1 Fc fusion to GLPS-F3 relative to binding in absence of sugar competitor (Dectin-1): 82 ± 0.2% | Percentage of binding of Langerin Fc fusion to GLPS-F3 relative to binding in absence of sugar competitor (Langerin): 5 ± 0.9% | inhibition of interaction between Fc.Langerin and GLPS-F3 (Langerin): 95% | Percentage of binding of DC-SIGN Fc fusion to GLPS-F3 relative to binding in absence of sugar competitor (DC-SIGN): 2 ± 0.5% | inhibition of binding of Fc.DC-SIGN to GLPS-F3 (DC-SIGN): 98% | Percentage of binding of TLR4.Fc to GLPS-F3 relative to binding in absence of sugar competitor (TLR4.Fc): 28 ± 6.3% | inhibition of TLR4.Fc and GLPS-F3 interaction (TLR4.Fc): 72% | Percentage of binding of CLEC-2 Fc fusion to GLPS-F3 relative to binding in absence of sugar competitor (CLEC-2): 88 ± 6.3% | Percentage of binding of CLEC-6 Fc fusion to GLPS-F3 relative to binding in absence of sugar competitor (CLEC-6): 75 ± 0.8%

β-1,3-glucan [b-glucan]
Percentage of binding of Dectin-1 Fc fusion to GLPS-F3 relative to binding in absence of sugar competitor (Dectin-1): 42 ± 0.3% | inhibition of interaction between GLPS-F3 and Fc.Dectin-1 (Dectin-1): 58% | Percentage of binding of Langerin Fc fusion to GLPS-F3 relative to binding in absence of sugar competitor (Langerin): 77 ± 3.2% | Percentage of binding of DC-SIGN Fc fusion to GLPS-F3 relative to binding in absence of sugar competitor (DC-SIGN): 81 ± 1.4% | Percentage of binding of TLR4.Fc to GLPS-F3 relative to binding in absence of sugar competitor (TLR4.Fc): 96 ± 4.0% | Percentage of binding of CLEC-2 Fc fusion to GLPS-F3 relative to binding in absence of sugar competitor (CLEC-2): 95 ± 5.1% | Percentage of binding of CLEC-6 Fc fusion to GLPS-F3 relative to binding in absence of sugar competitor (CLEC-6): 98 ± 7.3%
